Test [1] deals with MV-4-11 cells. Put plainly: Cell proliferation assay (CellTiter-Glo), MV-4-11. The settings on record: Homo sapiens, MV4-11, 96 h; MV-4-11 (MLL-AF4), 4 days incubation; read-out: Cell antiproliferation assay MV-4-11 IC50. Format: cell-based, human. The protocol:
The antiproliferative activity of test compounds was assessed in human leukemia cell lines. The cell line MV4-11, MOLM13 and OCI-AML3, which expresses the MLL fusion protein MLL-AF4, MLL-AF9 and carry the NPM1c gene mutation, respectively, were tested. HL-60 was used as a control cell line containing two MLL wildtype alleles in order to exclude compounds that display general cytotoxic effect. MV4-11 cells were cultured in IMDM supplemented with 10% FBS, MOLM13 and OCI-AML3 cells were cultured in RPMI1640 supplemented with 20% FBS, and HL-60 cells were cultured in IMDM supplemented with 20% FBS. Corresponding cells (MV4-11, MOLM13, OCI-AML3 or HL-60 cell line) were seeded in 100 uL medium per well in 96-well plate (white wall with clear bottom, tissue culture treated, Corning, Cat. No. CLS3903; Lot.No. 30419025). Plates were placed in the CO2 incubator overnight. Compounds solution (2 mM starting, 4-fold serial dilution) were prepared and added to the wells containing 100 μL of the culture medium with HPD300 according to the plate map and centrifuge at 1000 rpm for 1 minutes (200-fold dilution totally). MV4-11, MOLM13, OCI-AML3 and HL-60 cells were incubated with the compounds for 4, 12, 5 and 4 days, respectively, under 5% CO2 at 37° C., respectively. 100 μL of CellTiter-Glo reagent (Promega, Cat. No. G7573, Lot. No. 0000416710) was added to the assay plate by Multidrop Combi instrument, contents were mixed for 10 minutes on an orbital shaker to induce cell lysis. After incubation at room temperature for 10 mins, clear bottom with white back seal was pasted and luminescence with Envision was read.
(In general: ATP-based viability assays read luminescence as a measure of living cells.)

The target in test [2] is T1, Menin-MLL1 (Homo sapiens, UniProt O00255).
T1 construct: Menin (2-610) isform2; purchased ChemPartner 2020111101
T1 sequence (O00255 2-610): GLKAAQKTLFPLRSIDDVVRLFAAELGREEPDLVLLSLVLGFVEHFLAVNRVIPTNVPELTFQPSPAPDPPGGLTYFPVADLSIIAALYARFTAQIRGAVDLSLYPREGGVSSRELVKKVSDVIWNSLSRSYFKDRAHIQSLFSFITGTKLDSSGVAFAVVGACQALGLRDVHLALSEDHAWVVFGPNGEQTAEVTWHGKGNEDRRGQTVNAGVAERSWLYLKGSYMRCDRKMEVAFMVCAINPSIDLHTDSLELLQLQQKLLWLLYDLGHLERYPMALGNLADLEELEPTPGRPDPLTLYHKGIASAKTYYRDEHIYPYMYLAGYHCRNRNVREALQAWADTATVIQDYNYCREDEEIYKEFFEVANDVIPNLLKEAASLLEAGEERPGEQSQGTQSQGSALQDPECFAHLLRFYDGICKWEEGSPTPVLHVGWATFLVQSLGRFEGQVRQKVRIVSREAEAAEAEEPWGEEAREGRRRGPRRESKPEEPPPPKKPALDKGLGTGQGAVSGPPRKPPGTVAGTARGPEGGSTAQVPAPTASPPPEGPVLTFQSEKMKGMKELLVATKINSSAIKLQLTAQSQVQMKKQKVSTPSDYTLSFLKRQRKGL
Put plainly: Menin-MLL1 inhibition assay (fluorescence polarization, Menin protein + FAM-MLL peptide). In kind it is binding. The settings on record: Menin (2-610) isoform 2, FAM-labelled MLL peptide, mP readout; read-out: Biochemical assay Menin-MLL1 IC50. As to the method: 1× assay bu9ffer (Tris 7.5 50 mM, NaCl 50 mM, DTT 1 mM, Tween-20 0.01%) was prepared and test compounds solution (10 mM in DMSO, Sigma, Cat. No. 34869) were transferred to assay plate (384-well plate, Perkin Elmer, Cat. No. 6007279) by Echo. The final fraction of DMSO is 1%. 20 nM of Menin protein (Menin (2-610) isform2, ChemPartner, Cat. No. 2020111101) in 1× assay buffer was added to prepare 2× enzyme solution. Then 10 nM of MLL-peptide (Ac-SRWRFPARPGTGRR-Ahx-Ahx-K(FAM)-NH2, GL Biochem (Shanghai)), Cat. No. 833831/202009220104) in 1× assay buffer was added to prepare 2× substrate solution. 10 μL of 2× enzyme solution was transferred to assay plate or 10 μL of 1× assay buffer for low control group. 10 μL of 2× substrate solution was added to each well to start reaction. mP data on Envision (Ex480/Em535(s), Em535(p)) was collected.
Compound potencies were determined by first calculating % inhibition at each compound concentration according to equation 1:
Inhibition %=(Max−Signal)/(Max−Min)*100 (Equation 1)
Y=Bottom+(Top-Bottom)/(1+(IC50/X)[…]), where Y is % inhibition and X is compound concentration (Equation 2)
Background: Polarisation of emitted light reports the rotation of a fluorescent probe.

With `CCN(C(=O)c1cc(F)ccc1Oc1nncnc1N1CC2(CCN(C(=O)[C@H]3NC[C@H]4CC(F)(F)C[C@H]43)CC2)C1)C(C)C` (single isomer, unassigned) [Example 98a], the IC50 is 333 nM in test [1] and 5.4 nM in test [2]. On to `CCN(C(=O)c1cc(F)ccc1Oc1nncnc1N1CC2(CCN(C(=O)[C@@H]3NC[C@@H]4CC(F)(F)C[C@@H]43)CC2)C1)C(C)C` (single isomer, unassigned) [Example 98b], for which the results for the IC50 in test [1] and in test [2] were 2640 nM and 22 nM, respectively.

In the case of `CCN(C(=O)c1cc(F)ccc1Oc1nncnc1N1CC2(CCN(C(=O)C3NC[C@H]4CC(F)(F)C[C@@H]34)CC2)C1)C(C)C` (single isomer, unassigned) [Example 98c], the IC50 in test [2] is 44.5 nM.

With `CCN(C(=O)c1cc(F)ccc1Oc1nncnc1N1CC2(CCN(C(=O)[C@H]3NC[C@@H]4CC(F)(F)C[C@@H]43)CC2)C1)C(C)C` (single isomer, unassigned) [Example 98d], the IC50 was found to be 29.5 nM in test [1] and 2.3 nM in test [2]. On to `CCN(C(=O)c1cc(F)ccc1Oc1cncnc1N1CC2(CCN(C(=O)[C@@H]3C[C@H](F)CN3)CC2)C1)C(C)C` [Example 3], for which the IC50 turned out to be 329 nM in test [1] and 20.9 nM in test [2]. For `CCN(C(=O)c1cc(F)ccc1Oc1cncnc1N1CC2(CCN(C(=O)[C@@H]3CCCCN3)CC2)C1)C(C)C` [Example 4], in that order: 33.1 nM and 5 nM.

With `CCN(C(=O)c1cc(F)ccc1Oc1cncnc1N1CC2(CCN(C(=O)[C@@H]3C[C@@H](O)CN3)CC2)C1)C(C)C` [Example 5], the IC50 in test [1] came out at 440 nM; in test [2], 7 nM. As to `CCN(C(=O)c1cc(F)ccc1Oc1cncnc1N1CC2(CCN(C(=O)[C@@H]3C[C@]4(C)C[C@@H]4N3)CC2)C1)C(C)C` [Example 6], the results for the IC50 in test [1] and in test [2] were 33.8 nM and 6 nM, respectively.

Take `CCN(C(=O)c1cc(F)ccc1Oc1cncnc1N1CC2(CCN(C(=O)[C@H]3NCC[C@H]3O)CC2)C1)C(C)C` [Example 7]: the IC50 worked out at 220 nM in test [1] and 7.5 nM in test [2]. For `CCN(C(=O)c1cc(F)ccc1Oc1cncnc1N1CC2(CCN(C(=O)[C@H]3NCC[C@@H]3O)CC2)C1)C(C)C` [Example 8], in that order: 332 nM and 5.5 nM. In the case of `CCN(C(=O)c1cc(F)ccc1Oc1cncnc1N1CC2(CCN(C(=O)[C@@H]3C[C@@]4(C)C[C@H]4N3)CC2)C1)C(C)C` [Example 9], the IC50 in test [1] was 40.7 nM; in test [2], 12.9 nM. Take `CCN(C(=O)c1cc(F)ccc1Oc1cncnc1N1CC2(CCN(C(=O)[C@@H]3C[C@@H](OC(F)F)CN3)CC2)C1)C(C)C` [Example 10]: the IC50 amounted to 238 nM in test [1] and 8.3 nM in test [2]. For the compound `CCN(C(=O)c1cc(F)ccc1Oc1cncnc1N1CC2(CCN(C(=O)[C@@H]3C[C@]4(CO)CC4N3)CC2)C1)C(C)C` (some centres unmarked) [Example 11], the IC50 in test [1] worked out at 128 nM; in test [2] it was 6.3 nM. For `CCN(C(=O)c1cc(F)ccc1Oc1cncnc1N1CC2(CCN(C(=O)[C@@H]3C[C@](F)(CF)CN3)CC2)C1)C(C)C` [Example 12], in that order: 68.2 nM and 4.7 nM.

As for `CCN(C(=O)c1cc(F)ccc1Oc1cncnc1N1CC2(CCN(C(=O)[C@@H]3C[C@]4(COC)CC4N3)CC2)C1)C(C)C` (some centres unmarked) [Example 13], in test [2], the IC50 was determined as 16.7 nM. `CCN(C(=O)c1cc(F)ccc1Oc1cncnc1N1CC2(CCN(C(=O)[C@@H]3CC(C)(O)CN3)CC2)C1)C(C)C` (some centres unmarked) [Example 14]: the IC50 in test [2] was 9.2 nM. Regarding `CCN(C(=O)c1cc(F)ccc1Oc1cncnc1N1CC2(CCN(C(=O)[C@@H]3C[C@@H](S(C)(=O)=O)CN3)CC2)C1)C(C)C` [Example 15], the IC50 in test [2] came to 55.2 nM. For the compound `CCN(C(=O)c1cc(F)ccc1Oc1cncnc1N1CC2(CCN(C(=O)[C@@H]3C[C@H](NS(C)(=O)=O)CN3)CC2)C1)C(C)C` [Example 16], the IC50 in test [2] was determined as 22.3 nM. For `CCN(C(=O)c1cc(C#N)ccc1Oc1cncnc1N1CC2(CCN(C(=O)[C@@H]3C[C@@H](F)CN3)CC2)C1)C(C)C` [Example 17], the results for the IC50 in test [1] and in test [2] were 317 nM and 25.3 nM, respectively. In the case of `CCN(C(=O)c1cc(F)ccc1Oc1cncnc1N1CC2(CCN(C(=O)[C@@H]3C[C@@H](NS(C)(=O)=O)CN3)CC2)C1)C(C)C` [Example 18], in test [2], the IC50 came out at 13.5 nM.

As to `CCN(C(=O)c1cc(Cl)ccc1Oc1cncnc1N1CC2(CCN(C(=O)[C@@H]3C[C@@H](F)CN3)CC2)C1)C(C)C` [Example 19], the IC50 came to 40.2 nM in test [1] and 5 nM in test [2]. As to `CCN(C(=O)c1cc(F)ccc1Oc1cncnc1N1CC2(CCN(C(=O)[C@@H]3C[C@@H](F)CN3)CC2)C1)C1CC1` [Example 20], the IC50 in test [1] stood at 267 nM; in test [2], 10.1 nM. For `CCN(C(=O)c1cc(F)ccc1Oc1cncnc1N1CC2(CCN(C(=O)[C@@H]3CCCN3)CC2)C1)C(C)C` [Example 21], in that order: 42.2 nM and 5.8 nM. As for `CCN(C(=O)c1cc(F)ccc1Oc1cncnc1N1CC2(CCN(C(=O)[C@@H]3C[C@]4(CN3)CC4(F)F)CC2)C1)C(C)C` [Example 23], the IC50 was 127 nM in test [1] and 8.7 nM in test [2]. On to `CCN(C(=O)c1cc(F)ccc1Oc1cncnc1N1CC2(CCN(C(=O)[C@@H]3C[C@@]4(CN3)CC4(F)F)CC2)C1)C(C)C` [Example 24], for which the results for the IC50 in test [1] and in test [2] were 102 nM and 8 nM, respectively.

`CCN(C(=O)c1cc(F)ccc1Oc1cncnc1N1CC2(CCN(C(=O)[C@@H]3CC[C@@H](F)CN3)CC2)C1)C(C)C` [Example 25]: the values for the IC50 in test [1] and in test [2] were 232 nM and 8.4 nM, respectively. For the compound `CCN(C(=O)c1cc(F)ccc1Oc1cncnc1N1CC2(CCN(C(=O)[C@@H]3COCCN3)CC2)C1)C(C)C` [Example 26], the IC50 in test [1] is 647 nM; in test [2], 10.2 nM. Take `CCN(C(=O)c1cc(F)ccc1Oc1cncnc1N1CC2(CCN(C(=O)[C@@H]3C[C@@H](C#N)CN3)CC2)C1)C(C)C` [Example 27, 2-((4-(7-((2S,4R)-4-cyanopyrrolidine-2-carbonyl)-2,7-diazaspiro[3.5]nonan-2-yl)pyrimidin-5-yl)oxy)-N-ethyl-5-fluoro-N-isopropylbenzamide]: the figures for the IC50 in test [1] and in test [2] were 420 nM and 18.4 nM, respectively. For `CCN(C(=O)c1cc(F)ccc1Oc1cncnc1N1CC2(CCN(C(=O)[C@@]3(C)CCCN3)CC2)C1)C(C)C` [Example 29], the values for the IC50 in test [1] and in test [2] were 271 nM and 7 nM, respectively. For `CCN(C(=O)c1cc(F)ccc1Oc1cncnc1N1CC2(CCN(C(=O)[C@@H]3C[C@@H]4C[C@@H]4N3)CC2)C1)C(C)C` [Example 30], in that order: 33.8 nM and 4.7 nM.

For the compound `CCN(C(=O)c1cc(F)ccc1Oc1cncnc1N1CC2(CCN(C(=O)[C@@H]3C[C@@H](F)CN3)C2)C1)C(C)C` [Example 37], the IC50 in test [2] was 15.4 nM. On to `CCN(C(=O)c1cc(F)ccc1Oc1cncnc1N1CC2(CCN(C(=O)[C@@H]3CSCN3)CC2)C1)C(C)C` [Example 52], for which the IC50 in test [2] came to 21 nM.

For the origin of these results see patent US20240317748A1, “CARBONYL SUBSTITUTED DIAZASPIRO COMPOUNDS AND ITS USE” (BIONOVA PHARMACEUTICALS (SHANGHAI) LIMITED, priority 2021, published 2024).
